For series [1] the following is noted: cited from earlier work.
For series [2] the following is noted: cited from earlier work. The source holds these as a separate data set.
Series [3] in a line: Nalbuphine bioavailability study (Example 14).
For series [4] the following is noted: cited from earlier work. This is another data set of the same source.
The conditions of series [5]: orally delivered, mice; cited from earlier work.
For series [6] the following is noted: cited from earlier work. The source holds these as a separate data set.
For series [7] the following is noted: cited from earlier work. The source holds these as a separate data set.

≈ marks a conversion by molar mass, not a printed value. Where a name gives a salt, the structure may show the parent alone. Read-outs that look alike come from different tables or passages of the source. Some results are limits rather than exact numbers.

For `Oc1ccc2c3c1O[C@H]1[C@@H](O)CC[C@@]4(O)[C@@H](C2)N(CC2CCC2)CC[C@]314` [Nalbuphine], the solubility in water entry in series [1] (Example 14 text) is “about 35 mg/g”. The t1/2 in series [2] (i.v., 20 mg) is 3.7 h. Further, in series [2] (p.o., 60 mg), the t1/2 was 4.65 h and the tmax is 0.777 h. Further, in series [3] (intranasal), the “peak plasma achieved faster than intraoral administration” value is on record as around 1000%. Moreover, in series [3] (intranasal, equivalent dose), the “maximum drug plasma concentration higher than conventional oral formulation” value is reported as around 500%.

As to `C=CCN1CC[C@]23c4c5ccc(O)c4O[C@H]2C(=O)CC[C@@]3(O)[C@H]1C5` [Naloxone HCl, naloxone hydrochloride], the solubility in water in series [1] (US EPA EPI Suite reference) is given as 73 mg/mL; in series [1] (room temperature), “greater than 70 mg/g”.

On to `C=CCN1CC[C@]23c4c5ccc(O)c4O[C@H]2C(=O)CC[C@@]3(O)[C@H]1C5` [Naloxone], for which, in series [4] (healthy subjects, doses 5 mg to 120 mg), the “mean absolute bioavailability of oral Naloxone” value is recorded as “less than or equal to 2%”. Also, the mean absolute bioavailability in series [4] (oral PR tablets, 5 mg dose, based on AUCt) is 0.9%. The bioavailability in series [5] is 1%. Also, the pKa result in series [6] is “around 7.9”. The solubility in water in series [1] (Example 5) is given as 1.4 mg/mL (≈ 4.28 mM).

Consider `O=C1CC[C@@]2(O)[C@H]3Cc4ccc(O)c5c4[C@@]2(CCN3CC2CC2)[C@H]1O5` [Naltrexone], for which the “increase of permeation (factor)” value in series [7] (pH of NTX increased from 6.8 to 7.5) is listed as 1.6; in series [7] (pH of NTX increased from 6.8 to 8.5), 4.4. Besides, the permeation enhancement in series [7] (with Brij 58, reconstituted human buccal mucosa) was 7.7.

Regarding `Oc1ccc2c3c1O[C@H]1[C@@H](O)CC[C@@]4(O)[C@@H](C2)N(CC2CCC2)CC[C@]314` [nalbuphine hydrochloride], the “bioavailability when delivered orally” value in series [2] (oral) is reported as “approximately 12%”. Also, the bioavailability in series [3] (human, plasma, other: intranasal, 16.8 mg) was above 200%.

Values taken from patent US10493027B2, “Chemically stable compositions of a pharmaceutical active agent in a multi- chambered delivery system for mucosal delivery” (MUCODEL PHARMA LLC, priority 2014, dated 2019).
